{"source": "patent US10772967B2", "about": "“Enhanced anticancer agent” (priority 2014, dated 2020)", "key": {"[1]": {"assay": "Dose escalation of AG10 in rats, plasma concentration", "conditions": "i.v., initial rapid decline of total plasma concentration", "experimental": "Adult male Wistar rats, body weight ranging 160-200 g, were used for the study. […] Blood samples were collected at 0.08, 2, 4, 8, and 24 hour time intervals. The plasma samples were prepared by centrifugation at 15,000 RPM for 5 min. The resultant plasma was precipitated using 2× solvent B (95:5, Methanol-Water, 0.1% TFA)."}, "trypsin": {"system": "T1, trypsin", "T1 construct": "purchased Gibco TrypLE Express", "T1 sequence (P35049 25-248)": "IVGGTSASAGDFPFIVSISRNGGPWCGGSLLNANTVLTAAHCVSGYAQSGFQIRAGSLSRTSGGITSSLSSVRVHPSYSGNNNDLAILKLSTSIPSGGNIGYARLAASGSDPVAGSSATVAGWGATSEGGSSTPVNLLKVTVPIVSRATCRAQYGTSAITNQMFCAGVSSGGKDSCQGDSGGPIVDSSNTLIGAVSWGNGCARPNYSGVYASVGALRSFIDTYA", "assay": "Trypsin cleavage experiment in buffer, 7-AMC release", "type": "biochemical", "conditions": "hTTR present", "protocol": "We used trypsin to test the ability of hTTR to protect TLHE1-peptide conjugate (Conj1) from proteolysis in buffer. FIG. 14 illustrates the protection effect of binding to TTR on the stability of Conj1 in vitro. hTTR protects Conj1 against trypsin hydrolysis in buffer, according to some embodiments.\nAFU is arbitrary fluorescence units.\nThe experiment was performed in quadruplicate."}, "[2]": {"assay": "Stability against proteolytic hydrolysis in human serum", "conditions": "human serum pre-incubated with AG10 (10 μM)", "quoted_text": "The amounts of compounds remaining in serum were quantitated at different time-points."}, "[3]": {"assay": "Pharmacokinetic profile of Conj3 and Conj4 in rats", "conditions": "i.v.", "experimental": "(§1) The concentration of test compounds in plasma was determined using validated HPLC method and plotted as a function of time after dosing. Concentrations are expressed as means (±SEM).\n(§2) Jugular vein cannulated Sprague-Dawley male rats (200-220 g, 49-52 days old) were used for this study. An extension catheter was attached to the indwelling jugular vein cannula to facilitate remote sampling. The animals were randomly divided into two groups (N=3 or 4): control group and treatment group. […] Simultaneously, the control group was pretreated with vehicle (sterile water) followed by a single combined intravenous dose of molar equivalent of all test compounds as described above. Plasma was collected from each rat and precipitated using 2× solvent B (95:5, Methanol-Water, 0.1% TFA)."}, "[4]": {"conditions": "rat, in vivo, iv", "experimental": "as §1, §2"}, "[5]": {"assay": "Chemical stability in serum and simulated gastric acid", "type": "in vitro ADME", "conditions": "at least 48 h", "text": "Therefore, TLHE1 is a very good candidate for conjugation to peptides."}}, "note": "Read-outs that look alike come from different tables or passages of the source."}
{"compound": "Cc1n[nH]c(C)c1CCCOc1cc(C(=O)O)ccc1F", "note": "[AG10]", "values": [{"measurement": "initial half-life", "setting": "[1]", "result": "5 to 20", "unit": "min"}]}
{"compound": "Cc1cc(=O)oc2cc(NC(=O)C(CCCCN)NC(=O)CNC(=O)C(CCCNC(=N)N)NC(=O)CCOCCOCCOCCN=[N+]=[N-])ccc12", "note": "(stereo not drawn) [Arg-Gly-Lys-MCA]", "values": [{"measurement": "protection against proteolysis in the presence of hTTR (in words)", "setting": "trypsin", "result": "no protection against proteolysis"}]}
{"compound": "CC[C@H](C)[C@H](NC(=O)[C@H](Cc1ccc(O)cc1)NC(=O)[C@@H]1CCCN1C(=O)[C@H](CCCNC(=N)N)NC(=O)[C@H](CCCNC(=N)N)NC(=O)[C@@H]1CCCN1C(=O)[C@H](CCCCN)NC(=O)[C@H](CC(N)=O)NC(=O)[C@H](CCC(=O)O)NC(=O)[C@H](Cc1ccc(O)cc1)NC(=O)[C@H](CC(C)C)NC(=O)[C@H](CCC(=O)O)NC(=O)CCOCCOCCOCCn1cc(CCCOc2cc(OCCCc3c(C)n[nH]c3C)cc(C(=O)O)c2)nn1)C(=O)N[C@@H](CC(C)C)C(=O)O", "note": "[Conj2]", "values": [{"measurement": "amount remaining after 24 h in serum pre-incubated with AG10", "setting": "[2]; 24 h", "result": "no detectable amount"}]}
{"compound": "Cc1n[nH]c(C)c1CCCOc1cc(OCCCc2cn(CCOCCOCCOCCC(=O)NC(CCC(=O)O)C(=O)NC(Cc3c[nH]cn3)C(=O)NC(Cc3c[nH]c4ccccc34)C(=O)NC(CO)C(=O)NC(Cc3ccc(O)cc3)C(=O)NCC(=O)NC(CC(C)C)C(=O)NC(CCCNC(=N)N)C(=O)N3CCCC3C(=O)NCC(N)=O)nn2)cc(C(=O)O)c1", "note": "(centres unmarked) [Conj3]", "values": [{"measurement": "amount remaining after 48 h in serum pre-incubated with AG10", "setting": "[2]; 48 h", "result": "no detectable amount"}]}
{"compound": "Cc1n[nH]c(C)c1CCCOc1cc(OCCCc2cn(CCOCCOCCOCCC(=O)NCCCCC(NC(=O)C(Cc3ccc(O)cc3)NC(=O)C(CO)NC(=O)C(Cc3c[nH]c4ccccc34)NC(=O)C(Cc3c[nH]cn3)NC(=O)C3CCC(=O)N3)C(=O)NC(CC(C)C)C(=O)NC(CCCNC(=N)N)C(=O)N3CCCC3C(=O)NCC(N)=O)nn2)cc(C(=O)O)c1", "note": "(centres unmarked) [Conj4]", "values": [{"measurement": "time present in circulation", "setting": "[3]", "result": "at least 12 h"}]}
{"compound": "CC(C)C[C@H](NC(=O)[C@@H](CCCCN)NC(=O)[C@H](Cc1ccc(O)cc1)NC(=O)[C@H](CO)NC(=O)[C@H](Cc1c[nH]c2ccccc12)NC(=O)[C@H](Cc1cnc[nH]1)NC(=O)[C@@H]1CCC(=O)N1)C(=O)N[C@@H](CCCNC(=N)N)C(=O)N1CCC[C@H]1C(=O)NCC(N)=O", "note": "[GnRH-A, reference compound]", "values": [{"measurement": "plasma levels after 2 h of administration", "setting": "[3]", "result": "no detectable levels"}]}
{"compound": "CC(C)C[C@H](NC(=O)[C@@H](CCCCNC(=O)CCOCCOCCOCCN=[N+]=[N-])NC(=O)[C@H](Cc1ccc(O)cc1)NC(=O)[C@H](CO)NC(=O)[C@H](Cc1c[nH]c2ccccc12)NC(=O)[C@H](Cc1c[nH]cn1)NC(=O)[C@@H]1CCC(=O)N1)C(=O)N[C@@H](CCCNC(=N)N)C(=O)N1CCC[C@H]1C(=O)NCC(N)=O", "note": "[GnRH-A-Linker]", "values": [{"measurement": "plasma levels after 2 h of administration", "setting": "[4]", "result": "no detectable levels"}]}
{"compound": "C#CCCCOc1cc(OCCCc2c(C)n[nH]c2C)cc(C(=O)O)c1", "note": "[TLHE1, 3-(3-(3,5-dimethyl-1H-pyrazol-4-yl)propoxy)-5-(pent-4-yn-1-yloxy)benzoic Acid]", "values": [{"measurement": "degradation", "setting": "[5]", "result": "< 3", "unit": "%"}]}
